In patent US8901118B2, “Compounds and methods for kinase modulation, and indications therefor” (Plexxikon Inc., priority 2010, dated 2014):

Experiments:
BCR-NTRK1 BaF3 cells = target: T1, BCR-NTRK1 BaF3 cells (Homo sapiens, UniProt P04629); assay: BaF3 BCR-NTRK1 cell proliferation assay (ATPlite); format: cell-based; settings: read-out: Inhibition of Cell Proliferation IC50, BCR/BaF3 TrkA
T1 construct: fused on or other part: P11274 (Breakpoint cluster region protein)
How it was run: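 For these proliferation assays, engineered BaF3 cells (10,000/well, IL-3 withdrawn) and MV-4-11 cells (25,000/well) received compound serially diluted 1:3 from 10 μM over 8 points, with DMSO as control. After three days of culture, ATP content was measured by luminescence to derive IC50.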

CYP1A2 = target: T2, CYP1A2 (Homo sapiens, UniProt P05177); assay: CYP1A2 inhibition (fluorescent substrate CEC); format: in vitro ADME; settings: read-out: Cyp IC50 1A2
T2 sequence (P05177 1-516): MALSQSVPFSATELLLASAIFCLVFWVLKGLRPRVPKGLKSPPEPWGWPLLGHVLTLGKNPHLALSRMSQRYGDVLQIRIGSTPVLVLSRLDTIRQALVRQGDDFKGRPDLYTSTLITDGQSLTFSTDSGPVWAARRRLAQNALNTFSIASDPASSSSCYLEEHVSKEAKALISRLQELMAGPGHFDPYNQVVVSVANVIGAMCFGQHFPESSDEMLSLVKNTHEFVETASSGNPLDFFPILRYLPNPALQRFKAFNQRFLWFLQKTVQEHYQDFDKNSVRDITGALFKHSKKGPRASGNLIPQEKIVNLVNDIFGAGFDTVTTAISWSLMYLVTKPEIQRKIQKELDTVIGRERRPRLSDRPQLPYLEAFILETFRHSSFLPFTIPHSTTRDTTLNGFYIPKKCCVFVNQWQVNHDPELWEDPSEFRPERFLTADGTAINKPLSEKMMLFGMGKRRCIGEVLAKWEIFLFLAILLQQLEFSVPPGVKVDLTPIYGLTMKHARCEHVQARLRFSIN
How it was run: (§1)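 10-pt 1:1 dilution series (from 100 mM DMSO stock) in NADPH regen cofactor mix, 5% MeCN; 10 min preincubation at 37 °C. Enzyme reaction 37 °C: 1A2 15 min, 2C9 45 min, 2C19/2D6 30 min. Fluorescence readout; IC50 fit.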

CYP2D6 = CYP2D6 (Homo sapiens, UniProt P10635); assay: CYP2D6 inhibition (fluorescent substrate AMMC); format: in vitro ADME; settings: read-out: Cyp IC50 2D6
How it was run: as §1

Sequence of CYP2D6 (P10635 whole entry): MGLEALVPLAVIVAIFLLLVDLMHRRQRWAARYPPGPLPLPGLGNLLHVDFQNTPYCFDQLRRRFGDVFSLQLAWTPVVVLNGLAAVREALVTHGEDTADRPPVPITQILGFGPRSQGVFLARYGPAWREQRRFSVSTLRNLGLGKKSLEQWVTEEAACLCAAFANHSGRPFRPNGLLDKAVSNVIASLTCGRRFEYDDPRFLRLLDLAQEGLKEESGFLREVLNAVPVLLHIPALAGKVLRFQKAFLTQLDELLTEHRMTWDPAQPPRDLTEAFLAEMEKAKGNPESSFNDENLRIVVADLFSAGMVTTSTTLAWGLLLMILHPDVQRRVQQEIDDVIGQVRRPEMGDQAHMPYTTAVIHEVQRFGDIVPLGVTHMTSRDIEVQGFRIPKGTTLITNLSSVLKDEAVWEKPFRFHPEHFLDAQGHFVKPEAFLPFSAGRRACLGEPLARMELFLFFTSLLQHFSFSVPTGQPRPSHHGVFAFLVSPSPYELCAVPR
T1 sequence (P04629 510-781): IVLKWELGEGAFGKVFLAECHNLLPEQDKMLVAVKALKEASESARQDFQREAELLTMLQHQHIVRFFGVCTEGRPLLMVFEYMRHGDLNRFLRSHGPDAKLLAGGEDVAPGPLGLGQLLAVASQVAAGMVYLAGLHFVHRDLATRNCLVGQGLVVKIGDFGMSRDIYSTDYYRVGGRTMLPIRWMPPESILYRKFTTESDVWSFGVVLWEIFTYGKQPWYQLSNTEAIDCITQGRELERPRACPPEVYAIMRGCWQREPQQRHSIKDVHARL

Row | SMILES | IC50 (BCR-NTRK1 BaF3 cells) | IC50 (CYP1A2) | IC50 (CYP2D6)
1 | CNc1ncnc2[nH]cc(C(=O)c3ccc(Nc4ccc(C(F)(F)F)nc4)nc3F)c12 [Compound P-4092, [2-fluoro-6-[[6-(trifluoromethyl)-3-pyridyl]amino]-3-pyridyl]-[4-(methylamino)-7H-pyrrolo[2,3-d]pyrimidin-5-yl]methanone] | < 0.01 µM | < 5 µM | < 5 µM
2 | CCc1ccc(Nc2ccc(C(=O)c3c[nH]c4ncnc(N[C@@H](C)c5ccc(F)cc5)c34)c(F)n2)cn1 [Compound P-4097, [6-[(6-ethyl-3-pyridyl)amino]-2-fluoro-3-pyridyl]-[4-[[(1S)-1-(4-fluorophenyl)ethyl]amino]-7H-pyrrolo[2,3-d]pyrimidin-5-yl]methanone] | < 0.1 µM | < 5 µM | < 5 µM
3 | CCc1ccc(Nc2ccc(C(=O)c3c[nH]c4ncnc(NCCCOC)c34)c(F)n2)cn1 [Compound P-4098, [6-[(6-ethyl-3-pyridyl)amino]-2-fluoro-3-pyridyl]-[4-(3-methoxypropylamino)-7H-pyrrolo[2,3-d]pyrimidin-5-yl]methanone] | < 0.01 µM | < 5 µM | < 5 µM
4 | CCCCNc1ncnc2[nH]cc(C(=O)c3ccc(Nc4ccc(CC)nc4)nc3F)c12 [Compound P-4100, [4-(butylamino)-7H-pyrrolo[2,3-d]pyrimidin-5-yl]-[6-[(6-ethyl-3-pyridyl)amino]-2-fluoro-3-pyridyl]methanone] | < 0.01 µM | < 5 µM | < 5 µM
5 | COc1cncc(Nc2ccc(C(=O)c3c[nH]c4ncnc(NCC(F)(F)F)c34)c(F)n2)c1 [Compound P-4103, [2-fluoro-6-[(5-methoxy-3-pyridyl)amino]-3-pyridyl]-[4-(2,2,2-trifluoroethylamino)-7H-pyrrolo[2,3-d]pyrimidin-5-yl]methanone] | < 1 µM | < 5 µM | > 10 µM
6 | CCCNc1ncnc2[nH]cc(C(=O)c3ccc(Nc4cncc(OC)c4)nc3F)c12 [Compound P-4105, [2-fluoro-6-[(5-methoxy-3-pyridyl)amino]-3-pyridyl]-[4-(propylamino)-7H-pyrrolo[2,3-d]pyrimidin-5-yl]methanone] | < 0.1 µM | > 10 µM | > 10 µM
7 | COc1cncc(Nc2ccc(C(=O)c3c[nH]c4ncnc(NC(C)C)c34)c(F)n2)c1 [Compound P-4106, [2-fluoro-6-[(5-methoxy-3-pyridyl)amino]-3-pyridyl]-[4-(isopropylamino)-7H-pyrrolo[2,3-d]pyrimidin-5-yl]methanone] | < 0.1 µM | < 5 µM | < 5 µM
8 | CNc1ncnc2[nH]cc(C(=O)c3ccc(Nc4cncc(OC)c4)nc3F)c12 [Compound P-4108, [2-fluoro-6-[(5-methoxy-3-pyridyl)amino]-3-pyridyl]-[4-(methylamino)-7H-pyrrolo[2,3-d]pyrimidin-5-yl]methanone] | < 1 µM | < 5 µM | < 5 µM
9 | CC(C)Nc1ncnc2[nH]cc(C(=O)c3ccc(NC4CCCCC4)nc3Cl)c12 [Compound P-4109, [2-chloro-6-(cyclohexylamino)-3-pyridyl]-[4-(isopropylamino)-7H-pyrrolo[2,3-d]pyrimidin-5-yl]methanone] | < 1 µM | > 10 µM | > 10 µM
10 | CNc1ncnc2[nH]cc(C(=O)c3ccc(NC4CCCCC4)nc3Cl)c12 [Compound P-4110, [2-chloro-6-(cyclohexylamino)-3-pyridyl]-[4-(methylamino)-7H-pyrrolo[2,3-d]pyrimidin-5-yl]methanone] | > 1 µM | < 5 µM | < 5 µM

The remaining lines, values ahead:

Row | IC50 (BCR-NTRK1 BaF3 cells) | IC50 (CYP1A2) | IC50 (CYP2D6) | SMILES
11 | < 0.1 µM | > 10 µM | > 10 µM | O=C(c1ccc(Nc2ccc(C3CC3)nc2)nc1F)c1c[nH]c2ncnc(NCC(F)(F)F)c12 [Compound P-4090, [6-[(6-cyclopropyl-3-pyridyl)amino]-2-fluoro-3-pyridyl]-[4-(2,2,2-trifluoroethylamino)-7H-pyrrolo[2,3-d]pyrimidin-5-yl]methanone]
12 | < 0.01 µM | > 10 µM | > 10 µM | O=C(c1ccc(Nc2ccc(C(F)(F)F)nc2)nc1F)c1c[nH]c2ncnc(NC3CC3)c12 [Compound P-4091, [4-(cyclopropylamino)-7H-pyrrolo[2,3-d]pyrimidin-5-yl]-[2-fluoro-6-[[6-(trifluoromethyl)-3-pyridyl]amino]-3-pyridyl]methanone]
13 | < 0.01 µM | > 10 µM | > 10 µM | O=C(c1ccc(Nc2ccc(C3CC3)nc2)nc1F)c1c[nH]c2ncnc(NC3CC3)c12 [Compound P-4093, [4-(cyclopropylamino)-7H-pyrrolo[2,3-d]pyrimidin-5-yl]-[6-[(6-cyclopropyl-3-pyridyl)amino]-2-fluoro-3-pyridyl]methanone]
14 | < 0.01 µM | < 5 µM | < 5 µM | CNc1ncnc2[nH]cc(C(=O)c3ccc(Nc4ccc(C5CC5)nc4)nc3F)c12 [Compound P-4094, [6-[(6-cyclopropyl-3-pyridyl)amino]-2-fluoro-3-pyridyl]-[4-(methylamino)-7H-pyrrolo[2,3-d]pyrimidin-5-yl]methanone]
15 | < 0.01 µM | > 10 µM | > 10 µM | CCc1ccc(Nc2ccc(C(=O)c3c[nH]c4ncnc(NC5CCC5)c34)c(F)n2)cn1 [Compound P-4095, [4-(cyclobutylamino)-7H-pyrrolo[2,3-d]pyrimidin-5-yl]-[6-[(6-ethyl-3-pyridyl)amino]-2-fluoro-3-pyridyl]methanone]
16 | < 0.01 µM | < 5 µM | < 5 µM | CCc1ccc(Nc2ccc(C(=O)c3c[nH]c4ncnc(NC5CCC(F)(F)CC5)c34)c(F)n2)cn1 [Compound P-4096, [4-[(4,4-difluorocyclohexyl)amino]-7H-pyrrolo[2,3-d]pyrimidin-5-yl]-[6-[(6-ethyl-3-pyridyl)amino]-2-fluoro-3-pyridyl]methanone]
17 | < 0.01 µM | < 5 µM | < 5 µM | CCc1ccc(Nc2ccc(C(=O)c3c[nH]c4ncnc(NC5CCCC5)c34)c(F)n2)cn1 [Compound P-4099, [4-(cyclopentylamino)-7H-pyrrolo[2,3-d]pyrimidin-5-yl]-[6-[(6-ethyl-3-pyridyl)amino]-2-fluoro-3-pyridyl]methanone]
18 | < 0.1 µM | > 10 µM | > 10 µM | CC(C)Nc1ncnc2[nH]cc(C(=O)c3ccc(NC4CCCCC4)nc3F)c12 [Compound P-4101, [6-(cyclohexylamino)-2-fluoro-3-pyridyl]-[4-(isopropylamino)-7H-pyrrolo[2,3-d]pyrimidin-5-yl]methanone]
19 | < 1 µM | < 5 µM | < 5 µM | CNc1ncnc2[nH]cc(C(=O)c3ccc(NC4CCCCC4)nc3F)c12 [Compound P-4102, [6-(cyclohexylamino)-2-fluoro-3-pyridyl]-[4-(methylamino)-7H-pyrrolo[2,3-d]pyrimidin-5-yl]methanone]
20 | < 0.1 µM | > 10 µM | > 10 µM | COc1cncc(Nc2ccc(C(=O)c3c[nH]c4ncnc(NC5CCCCC5)c34)c(F)n2)c1 [Compound P-4104, [4-(cyclohexylamino)-7H-pyrrolo[2,3-d]pyrimidin-5-yl]-[2-fluoro-6-[(5-methoxy-3-pyridyl)amino]-3-pyridyl]methanone]
21 | < 0.1 µM | < 5 µM | < 5 µM | COc1cncc(Nc2ccc(C(=O)c3c[nH]c4ncnc(NC5CC5)c34)c(F)n2)c1 [Compound P-4107, [4-(cyclopropylamino)-7H-pyrrolo[2,3-d]pyrimidin-5-yl]-[2-fluoro-6-[(5-methoxy-3-pyridyl)amino]-3-pyridyl]methanone]
22 | < 0.01 µM | > 10 µM | > 10 µM | Cc1ccc(Nc2ccc(C(=O)c3c[nH]c4ncnc(NC5CCCCC5)c34)c(F)n2)cn1 [Compound P-4111, [4-(cyclohexylamino)-7H-pyrrolo[2,3-d]pyrimidin-5-yl]-[2-fluoro-6-[(6-methyl-3-pyridyl)amino]-3-pyridyl]methanone]
23 | < 0.1 µM | < 5 µM | < 5 µM | Cc1ccc(Nc2ccc(C(=O)c3c[nH]c4ncnc(NCC(F)(F)F)c34)c(F)n2)cn1 [Compound P-4112, [2-fluoro-6-[(6-methyl-3-pyridyl)amino]-3-pyridyl]-[4-(2,2,2-trifluoroethylamino)-7H-pyrrolo[2,3-d]pyrimidin-5-yl]methanone]
24 | < 0.1 µM | > 10 µM | > 10 µM | Cc1ccc(Nc2ccc(C(=O)c3c[nH]c4ncnc(NCC5CC5)c34)c(F)n2)cn1 [Compound P-4113, [4-(cyclopropylmethylamino)-7H-pyrrolo[2,3-d]pyrimidin-5-yl]-[2-fluoro-6-[(6-methyl-3-pyridyl)amino]-3-pyridyl]methanone]
